Values after ≈ are worked out from the molar mass of the structure shown.
Conditions: buffer; pH 7.4; 200.0 µM

Going from `Cc1ccc(Nc2cc(C)c3ccc(O)cc3n2)cc1C.Cl` to `Cc1ccnc(NC(=O)CCNS(=O)(=O)c2ccc(C)c(C)c2)c1`, the solubility kinetic rises from 11.1 µg/mL to 45.8 µg/mL (≈ 132 µM) (4.1-fold).

Compared with `CN(C)S(=O)(=O)Nc1cccc(-c2cn3c(n2)SCC3)c1`, `Cc1ccc(S(=O)(=O)N(C)C)cc1NC(=O)Nc1ccccc1` is lower in solubility kinetic: greater than 48.7 µg/mL for the first, less than 0.2 µg/mL for the second.

Compared with `COc1cc(-c2noc(C)n2)cc(OC)c1OC`, `COc1ccc(-c2cc(C(=O)Nc3ccc(OC)cc3OC)no2)cc1` is lower in solubility kinetic: 35.7 µg/mL (≈ 143 µM) for the first, less than 0.4 µg/mL for the second.

`Cc1ccccc1OCC(=O)OCC(=O)NCc1ccccc1` and `Cc1ccc(CNC(=O)COC(=O)C2CCC2)cc1` cannot be ordered by solubility kinetic: greater than 47 µg/mL for the first, greater than 39.2 µg/mL for the second.

Going from `CC(NS(=O)(=O)c1ccccc1)C1CC2CCC1C2` (stereo not given) to `CC(=O)Nc1ccc(S(=O)(=O)NC(C)c2ccccc2)cc1` (stereo not given), the solubility kinetic rises from 6 µg/mL (≈ 21.5 µM) to greater than 47.8 µg/mL.

Going from `O=C1/C(=C/c2ccc([N+](=O)[O-])cc2)CCC1C1CCCC1` (stereo not given) to `O=C(CN1CCCC1)Nc1ccc([N+](=O)[O-])cc1Cl`, the solubility kinetic rises from 1 µg/mL (≈ 3.5 µM) to 36.2 µg/mL (≈ 128 µM) (36-fold).

First: CC(=O)c1c(O)c2cccc3c2n(c1=O)CCC3
Second: Oc1c(CN2CCCCC2)cc(Br)c2cccnc12
The solubility kinetic of the first is higher: greater than 36.5 µg/mL for the first, 33.6 µg/mL (≈ 105 µM) for the second.

First: O=C(Nc1nc2ccccc2[nH]1)C1CCC1
Second: S=C(NC1CC1)NC1CCCc2ccccc21 (stereo not given)
The solubility kinetic of the first is lower: 6 µg/mL (≈ 27.9 µM) for the first, greater than 37 µg/mL for the second.

`CC(C)NC(=O)C(=O)NCc1ccccn1` and `CC1=C(C(=O)Nc2cccc(C(=O)NC(C)C)c2)SCCO1` cannot be ordered by solubility kinetic: greater than 33.2 µg/mL for the first, 47.9 µg/mL (≈ 149 µM) for the second.

`Cc1onc(-c2ccccc2Cl)c1C(=O)OCC(=O)N1CCC(C)CC1` and `CC1CCCCC1NC(=O)COC(=O)c1cccn1C` (stereo not given) cannot be ordered by solubility kinetic: greater than 56.5 µg/mL for the first, greater than 41.8 µg/mL for the second.

Going from `COc1cc(CN2CCc3c([nH]c4ccccc34)C2)cc(OC)c1` to `COc1ccc(CN2C(=O)c3ccccc3C2=O)cc1`, the solubility kinetic falls from 26 µg/mL (≈ 80.6 µM) to 6 µg/mL (≈ 22.4 µM) (4.3-fold).

First: COc1cccc(C(=O)OCC(=O)Nc2ccc3c(c2)OCCO3)c1
Second: O=C(COc1ccc(Cl)cc1)Nc1ccc2c(c1)OCO2
The solubility kinetic of the first is higher: 8 µg/mL (≈ 23.3 µM) for the first, less than 0.7 µg/mL for the second.

Compared with `O=C(NNC(=O)c1cc([N+](=O)[O-])ccc1Cl)c1cccnc1`, `O=C(COC(=O)c1cccc(F)c1)Nc1ccc(Cl)cn1` is lower in solubility kinetic: greater than 48.1 µg/mL for the first, 6.2 µg/mL (≈ 20.1 µM) for the second.

Going from `COc1ccccc1CC(=O)Nc1cccc(C(=O)Nc2nccs2)c1` to `O=C(Nc1nsc(-c2ccccc2)n1)c1ccc(F)cc1`, the solubility kinetic rises from 0.7 µg/mL (≈ 1.91 µM) to 32.2 µg/mL (≈ 108 µM) (46-fold).

`Cc1ccc(COC(=O)c2ccc3ccccc3n2)cc1` and `CCNC(=O)c1ccc(CSc2nc3ccccc3s2)cc1` are within 1.5-fold of each other in solubility kinetic: 7.6 µg/mL (≈ 27.4 µM) for the first, 6.7 µg/mL (≈ 20.4 µM) for the second.

Compared with `Cc1cccnc1NC(=O)Cn1c(=O)oc2ccccc21`, `Cc1ccc(NC(=O)c2cc3ccccc3o2)cc1Cl` is lower in solubility kinetic: 41.2 µg/mL (≈ 145 µM) for the first, less than 0.6 µg/mL for the second.

Going from `CCOC(=O)C1CCCN(C(=O)COc2ccc(C(=O)c3ccc(F)cc3)cc2)C1` (stereo not given) to `Cc1ccc(C(=O)OCC(=O)NCCc2ccc(F)cc2)cc1S(=O)(=O)N1CCOCC1`, the solubility kinetic falls from greater than 62 µg/mL to 57.2 µg/mL (≈ 123 µM).

Compared with `Cc1ccc(OC(C)C(=O)Nc2cc(C)on2)cc1` (stereo not given), `Cc1ccc(NC(=O)c2cc3cccc([N+](=O)[O-])c3[nH]2)cc1` is 13-fold lower in solubility kinetic: 36.2 µg/mL (≈ 139 µM) for the first, 2.8 µg/mL (≈ 9.48 µM) for the second.

First: Cc1ccccc1C(=O)NCCN1CCOCC1.Cl
Second: O=C(CSc1nc2ccccc2c(=O)n1CCCN1CCOCC1)Nc1ccc(F)c(Cl)c1
The solubility kinetic of the first is higher: greater than 42.7 µg/mL for the first, 18.5 µg/mL (≈ 37.7 µM) for the second.

Compared with `COc1ccc(CN2CCN(C3CCC3)CC2CCO)cc1C` (stereo not given), `CC1CCCC(N2CCN(C(=O)c3ccccc3F)CC2)C1` (stereo not given) is higher in solubility kinetic: 42.3 µg/mL (≈ 133 µM) for the first, greater than 45.7 µg/mL for the second.

Going from `Cc1ccc(NC(=S)N2CCCC2)cc1Cl` to `O=C(COC(=O)c1cc(S(=O)(=O)N2CCCCC2)ccc1Cl)NC1CCS(=O)(=O)C1` (stereo not given), the solubility kinetic rises from 12.5 µg/mL (≈ 49.1 µM) to greater than 71.8 µg/mL.

Going from `COc1ccc(C(=O)NC2CCCc3ccccc32)c(OC)c1OC` (stereo not given) to `COc1cccc(OC)c1OC(=O)C1CC(=O)N(c2ccc3c(c2)OCCO3)C1` (stereo not given), the solubility kinetic rises from 41.9 µg/mL (≈ 123 µM) to greater than 59.9 µg/mL.

First: CCOC(=O)CSC1=NN2CCS(=O)(=O)N=C2S1
Second: CCOC(=O)c1cc(CC)sc1/N=C/C1C(=O)CCCC1=O
The solubility kinetic of the first is higher: greater than 46.4 µg/mL for the first, 19.5 µg/mL (≈ 60.7 µM) for the second.

Compared with `O=C(COc1ccc(Cl)cc1)NCCCNC(=O)c1ccccn1`, `COc1ccccc1N1CCN(CC(=O)NCc2ccc(Cl)cc2)CC1` is higher in solubility kinetic: 50.5 µg/mL (≈ 145 µM) for the first, greater than 56.1 µg/mL for the second.

First: O=C1CN(S(=O)(=O)c2ccccc2Cl)CCN1
Second: O=C(CNc1ccccc1Cl)c1ccc(Br)cc1
The solubility kinetic of the first is higher: greater than 41.2 µg/mL for the first, less than 0.7 µg/mL for the second.

`CC(C)CCC1(CCNC(=O)c2cccs2)CCOC(C)(C)C1` (stereo not given) and `O=C(Cc1csc(-c2ccccc2)n1)NCc1cccs1` are within 1.5-fold of each other in solubility kinetic: 22.4 µg/mL (≈ 66.4 µM) for the first, 15.6 µg/mL (≈ 49.6 µM) for the second.

`COCCCn1c(=S)[nH]c2sc3c(c2c1=O)CCCC3` and `COc1ccc(-n2c(=S)[nH]c3sc4c(c3c2=O)CCN(C)C4)cc1` cannot be ordered by solubility kinetic: greater than 46.6 µg/mL for the first, greater than 53.9 µg/mL for the second.

`CC1=CC(C)(C)N(C(=O)CN2C(=O)CCC2=O)c2ccc(C)cc21` and `CC1CCC2(CC1)NC(=O)N(CC(=O)Nc1ccc(C(N)=O)cc1)C2=O` (stereo not given) cannot be ordered by solubility kinetic: greater than 49 µg/mL for the first, greater than 53.8 µg/mL for the second.

`Cc1ccc(C(=O)N2CCN(c3nc4ccccc4n3C)CC2)cc1` and `CN1CCN(c2ccccc2NC(=O)c2ccc(F)cc2)CC1` cannot be ordered by solubility kinetic: greater than 50.2 µg/mL for the first, greater than 47 µg/mL for the second.

First: O=C(NCCc1c[nH]c2ccccc12)c1cc([N+](=O)[O-])cc([N+](=O)[O-])c1
Second: O=C(O)c1ccccc1-c1ccccc1C(=O)NCCc1ccccc1
The solubility kinetic of the first is 3.3-fold lower: 15.2 µg/mL (≈ 42.9 µM) for the first, 50.4 µg/mL (≈ 146 µM) for the second.

Going from `Cc1ccc2nc(-c3ccncc3)[nH]c2c1` to `Cc1ccc2nc(NCc3ccccc3)c(C#N)cc2c1`, the solubility kinetic falls from 28.1 µg/mL (≈ 134 µM) to 2.8 µg/mL (≈ 10.2 µM) (10-fold).

Going from `Cc1ccccc1N1C(=O)CSC1=C(C#N)C#N` to `Cc1ccccc1OCCn1ccnc1`, the solubility kinetic falls from greater than 38.3 µg/mL to 24.5 µg/mL (≈ 121 µM).

`COc1ccccc1C(=O)NC(CCSC)C(=O)NC1CC1` (stereo not given) and `COc1ccc(NC(=O)N[C@@H](CCSC)C(=O)O)cc1OC` cannot be ordered by solubility kinetic: greater than 48.4 µg/mL for the first, greater than 49.3 µg/mL for the second.

Going from `O=C(Nc1ccc2[nH]ccc2c1)c1ccc(F)cc1` to `O=C(Nc1ccc(CSc2ccccc2)cc1)c1ccco1`, the solubility kinetic falls from greater than 38.1 µg/mL to less than 0.7 µg/mL.

First: COCc1cc(=O)[nH]c(SCCS(=O)(=O)c2ccc(C)cc2)n1
Second: CC(=O)c1c(C)[nH]c(C(=O)COC(=O)CCNS(=O)(=O)c2ccc(C)c(C)c2)c1C
The solubility kinetic of the first is higher: greater than 53.2 µg/mL for the first, 11 µg/mL (≈ 25.3 µM) for the second.

First: CCc1ccc(Oc2ncnc(N)c2[N+](=O)[O-])cc1
Second: N#Cc1ccc(CSc2ncccn2)cc1
The solubility kinetic of the first is lower: 5 µg/mL (≈ 19.2 µM) for the first, greater than 34.1 µg/mL for the second.

Going from `O=C(O)C1C2CCC(O2)C1C(=O)Nc1cccc(Cl)c1` (stereo not given) to `Cc1ccccc1NC(=O)COC(=O)[C@@H]1CCCN1C(=O)c1cccs1`, the solubility kinetic rises from 40.6 µg/mL (≈ 137 µM) to greater than 55.9 µg/mL.

`O=C(Cc1ncon1)Nc1ccc(F)c(F)c1F` and `CCOc1ccc(NC(=O)CN(C)C(=O)c2ccc(C)o2)cc1OCC` are within 1.5-fold of each other in solubility kinetic: 38.1 µg/mL (≈ 148 µM) for the first, 52.5 µg/mL (≈ 146 µM) for the second.

Going from `COc1ncnc2c1oc1nc(C)c3c(c12)CC(C)(C)OC3` to `COc1cccc(N=Cc2c(O)c3ccccc3oc2=O)c1`, the solubility kinetic rises from 4.9 µg/mL (≈ 16.4 µM) to 15.5 µg/mL (≈ 52.5 µM) (3.2-fold).

`O=C(O)C(=O)O.O=S(=O)(c1cccc(C(F)(F)F)c1)N1CCN(CC(O)COCc2ccccc2)CC1` (stereo not given) and `COc1ccc(CCNC(=O)C2CC(O)CN2S(=O)(=O)c2ccc(Cl)cc2)cc1OC` (stereo not given) cannot be ordered by solubility kinetic: greater than 82.3 µg/mL for the first, greater than 70.3 µg/mL for the second.

Compared with `CCn1c(O)c(C=NCCN2CCOCC2)c(=O)[nH]c1=S`, `CN(C)CCCNc1nc(-c2ccccc2)nc2ccccc12.Cl` is lower in solubility kinetic: greater than 46.9 µg/mL for the first, 44.1 µg/mL for the second.

Going from `COc1cccc(N=C(N)N=C(N)N)c1` to `Cc1nc(/C(=N/O)C(N)=O)cs1`, the solubility kinetic rises from 25.6 µg/mL (≈ 124 µM) to greater than 27.8 µg/mL.

In the case of `C(=C\c1ccco1)/c1ccc2ccccc2n1`, the solubility kinetic is reported as 10.7 µg/mL (≈ 48.4 µM).

From PubChem BioAssay AID1996
